Measurements published in PubChem BioAssay (NCI).
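Dose response: 5 concentrations. Exposure: 48 h. Format: 96-well plates. Endpoint: linear interpolation; highest concentration if not reached. At the GI50, growth is halved. The concentration for full growth arrest is given as TGI.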

What was measured:
Experiment in all cases: NCI anticancer screen, dose series, 48 h
[1] = test system: A498 renal
[2] = test system: BT-549 breast
[3] = test system: DU-145 prostate
[4] = test system: HCT-116 colon
[5] = test system: MCF7 breast
[6] = test system: MDA-MB-435
[7] = test system: MOLT-4 leukemia
[8] = test system: OVCAR-3 ovarian
[9] = test system: SF-539 CNS
[10] = test system: SK-MEL-2 melanoma

Row | Structure (SMILES) | TGI [1] | GI50 [2] | TGI [2] | GI50 [3] | TGI [3] | TGI [4] | TGI [5] | GI50 [6] | TGI [6] | TGI [7] | TGI [8] | TGI [9] | TGI [10] | GI50 [1] | GI50 [4] | GI50 [5] | GI50 [7] | GI50 [8] | GI50 [9] | GI50 [10]
1 | Nc1ncnc2c1nnn2C1OC(CO)C(O)C1O (centres undefined) | 5.68 µM | 0.496 µM | 5.75 µM | 0.144 µM | 1.91 µM | 10.5 µM | 16.8 µM | 0.273 µM | 2.44 µM | 22.2 µM | 9.26 µM | 9.04 µM | 1.74 µM |  |  |  |  |  |  | 
2 | COc1ccc(-c2nnc(COc3ccc(C(=O)/C=C/c4ccco4)cc3)o2)cc1 | 23.6 µM | 2.87 µM | 8.16 µM | 2.33 µM | 5.72 µM | 3.36 µM | 3.28 µM | 2.13 µM | 5.08 µM | 9.05 µM | 3.95 µM | 3.63 µM | 27.7 µM | 11.4 µM | 1.82 µM | 1.39 µM | 2.89 µM | 1.95 µM | 1.8 µM | 13.9 µM
3 | Cn1cnc([N+](=O)[O-])c1S(=O)(=O)Oc1cccc2ccccc12 | 27.2 µM | 14.4 µM | 30.7 µM | 3.14 µM | 8.03 µM | 5.11 µM | 14.5 µM | 2.31 µM | 7.21 µM | 22.7 µM | 3.96 µM | 5.59 µM | 20 µM | 11.8 µM | 2.1 µM | 3.56 µM | 3.37 µM | 1.89 µM | 2.23 µM | 4.42 µM
4 | N#CC(C#N)=CNC(N)=S | > 100 µM |  | > 100 µM |  | > 100 µM | > 100 µM | > 100 µM |  | > 100 µM | > 100 µM | > 100 µM | > 100 µM | > 100 µM |  |  |  |  |  |  | 
5 | COc1cc(C2c3cc4c(cc3OC(C)(O)C2C)OCO4)cc(OC)c1OC (centres undefined) | > 100 µM |  | > 100 µM |  | > 100 µM | 75.2 µM | > 100 µM |  | > 100 µM | 25.9 µM | > 100 µM | 0.888 µM |  |  |  |  |  |  |  | 
6 | O=S(=O)(CCn1c(Sc2ccccc2)c(Sc2ccccc2)c2ccccc21)c1ccccc1 | > 100 µM |  | > 100 µM |  | > 100 µM | > 100 µM | > 100 µM |  | > 100 µM | > 100 µM | > 100 µM | > 100 µM | > 100 µM |  |  |  |  |  |  | 
7 | COc1cc(/C=C/c2cc(O)c(C(C)=O)c(O)c2)cc2c1O[C@]1(C)CC[C@@H](O)C(C)(C)[C@H]1C2 | 48.3 µM | 3.03 µM | 27.6 µM | 16.6 µM | > 100 µM | 22 µM | 22.2 µM | 7.38 µM | 57.2 µM | 34.7 µM | 53.9 µM | 6.2 µM | 51.6 µM | 4.78 µM | 4.56 µM | 3.31 µM | 3.22 µM | 4.67 µM | 1.32 µM | 7.87 µM
8 | COc1cc2c3c(n(C)c(=O)c2cc1OC)-c1cc2c(cc1/C3=C\CCN)OCO2 | 27.7 µM | 2.13 µM | 46.1 µM | 0.362 µM | 11.4 µM | 0.348 µM | 1.3 µM | 0.538 µM | 9.56 µM |  | 5.09 µM | 3.74 µM | 27 µM | 11.4 µM | < 0.024 µM | 0.094 µM | < 0.01 µM | 0.564 µM | 0.215 µM | 6.11 µM
9 | O=c1c2sccc2n(CC2COc3ccccc3O2)c(=O)n1O (centres undefined) | 38.1 µM | 12.1 µM | > 100 µM | 19.8 µM | > 100 µM | 29.2 µM | > 100 µM | 23.9 µM | > 100 µM | > 100 µM | 44.9 µM | > 100 µM | 80.7 µM | 13.3 µM | 6.54 µM | 5.17 µM | 21.3 µM | 10.4 µM | 15.3 µM | 23.5 µM
10 | CSc1nc(NC2OCC(OC(C)=O)C(OC(C)=O)C2OC(C)=O)c(N=CC=Nc2c(NC3OCC(OC(C)=O)C(OC(C)=O)C3OC(C)=O)nc(SC)[nH]c2=O)c(=O)[nH]1 (centres undefined) | > 100 µM |  | > 100 µM |  | > 100 µM | > 100 µM | > 100 µM |  | > 100 µM | > 100 µM | > 100 µM | > 86.4 µM | > 100 µM |  |  |  |  |  |  | 
11 | Cc1cccc(NC(=O)Cn2cnc3sc(C(=O)OC(C)C)c(C)c3c2=O)c1 | > 50 µM | 8.21 µM | 25.2 µM | 9.33 µM | 36.6 µM | > 50 µM | > 50 µM | > 50 µM | > 50 µM | > 50 µM | > 50 µM | 21.5 µM | > 50 µM | 16.1 µM | 15.6 µM | 38.2 µM | > 50 µM | 33.4 µM | 8.77 µM | 16 µM
12 | COc1cccc(-c2nc(-c3ccc(NC(=O)C(C)C)cc3)[nH]c2-c2ccnc(Br)c2)c1 | 6.62 µM | 2.04 µM | 80.1 µM | 3.86 µM | > 100 µM | 7.8 µM | 5.2 µM | 3.12 µM | > 100 µM | > 100 µM | > 100 µM | 6.56 µM | 6.34 µM | 1.84 µM | 2.49 µM | 1.67 µM | 2.56 µM | 3.38 µM | 1.78 µM | 2.3 µM
13 | COc1ccc(/C=C(/C#N)n2nnc3cccc(F)c32)cc1 | 4.1 µM | 2.39 µM | 52.9 µM | 1.36 µM | 4.67 µM | 3.02 µM | > 100 µM | 0.18 µM | 0.471 µM | > 100 µM | 0.899 µM | 4.06 µM | 21.9 µM | 1.22 µM | 0.533 µM | 0.524 µM | 0.68 µM | 0.316 µM | 1.62 µM | 0.653 µM
14 | O=C(/C=C/c1ccc(Cl)cc1)c1ccc(Nc2ccnc3cc(Cl)ccc23)cc1 | > 71.8 µM | 29.3 µM | > 100 µM | 27.6 µM | > 100 µM |  | > 100 µM | 9.3 µM | > 100 µM | > 100 µM | > 100 µM | > 100 µM | > 100 µM | > 44.7 µM |  | 1.56 µM | 5.46 µM | 32 µM | > 63.3 µM | > 100 µM
